Structures are written as SMILES.

One molecule from patent publication US10085955B2, “Methods and compositions for treatment of demyelinating diseases” (Pathologica LLC, priority 2013, dated 2018) can be followed below.

This test concerns collagen-induced arthritis (CIA) model. The test is described as follows: Murine collagen-induced arthritis. In kind it is in vivo, DBA/1 mice. As to conditions: mice, 25 mg/kg PO BID. The text has this: The collagen-induced arthritis (CIA) model is considered a suitable model for studying potential drugs active in human arthritis because of the many immunological and pathological similarities to human rheumatoid arthritis (RA), the involvement of localized major histocompatibility, […] class-II-restricted T helper lymphocyte activation, and the similarity of histological lesions. See, e.g., Rosloniec E F et al., “Collagen-Induced Arthritis,” Current Protocols in Immunology, Unit 15.5 (1993). See also the model using a monoclonal antibody to CD18 and VLA-4 integrins described in Issekutz, A. C. et al., Immunology (1996) 88:569. […]
Data. […] Edema is measured on days 18-20, 22-27, and 29-34. Inflammation is assessed by infiltration of inflammatory cells and edema. Post-euthanasia, terminal blood draws are collected, heparinized, and frozen at −70° C. until analyzed for cytokines such as osteopontin, TNFalpha, IL-1, CRP, MCP1, MIP-lbeta, RANTES, IFNgamma, TGFbeta, IP-10, IL-17, and MMP9. […] Bone resorption is quantified by presence of osteoclasts, defects in or loss of medullary trabecular or cortical bone. Cartilage damage is assessed by examining the severity and spread of chondrocyte loss and collagen disruption. […]
Statistical Analysis. Clinical data for paw scores (means for animal) are analyzed by determining the area under the dosing curve (AUC) for days 1-15. […]

Consider `CC(/C=N/NC(=N)N)=N\NC(=N)N` [MGBG, 1,1′ [methylethanediylidene]dinitrilodiguanidine], for which the “early phase of paw swelling/inflammation” value is on record as “did affect the early phase of paw swelling/inflammation” and the “efficacy as a disease-modifying anti-rheumatic drug (DMARD)” value is “not efficacious”.
